Results reported in patent US11180462B2, “Microbiocidal oxadiazole derivatives” (SYNGENTA PARTICIPATIONS AG, priority 2015, dated 2021).

Legend:
[1] = test system: Puccinia recondita f. Sp. Tritici; test: Fungicidal activity against Puccinia recondita f. sp. tritici / wheat / leaf disc preventative (brown rust); type: in vivo; conditions: foliar, 200 ppm in the applied formulation, wheat leaf segments, preventative, compared to untreated control leaf disks, read-out: disease control
Summary of the method: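 Compound application precedes infection: segments of wheat cv. Kanzler, sprayed at 200 ppm, are inoculated with a spore suspension after 1 day. Incubation is at 19° C. with 75% relative humidity and 12 h light/12 h darkness, and control versus untreated leaves is rated 7 to 9 days post-application.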

[2] = test system: Puccinia recondita f. Sp. Tritici; test: Fungicidal activity against Puccinia recondita f. sp. tritici / wheat / leaf disc curative (brown rust); type: in vivo; conditions: foliar, 24 h, 200 ppm in the applied formulation, wheat leaf segments, curative (applied 1 day after inoculation), compared to untreated control leaf disks, read-out: disease control
Summary of the method: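 Curative test on wheat leaf segments (cv. Kanzler) on agar, inoculated with spore suspension and held dark at 19° C, 75% RH; formulated compound in water applied 1 day after inoculation. Incubated at 19° C, 75% RH, 12 h light/12 h dark; percent disease control versus untreated scored 6 to 8 days after application.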

Phakopsora Pachyrhizi = test: Fungicidal activity against Phakopsora pachyrhizi / soybean / leaf disc preventative (Asian soybean rust); type: in vivo; conditions: foliar, 200 ppm in the applied formulation, soybean leaf disks, compared to untreated control leaf disks, read-out: disease control
Summary of the method: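 Preventative soybean leaf-disc test: discs on water agar sprayed with diluted formulated compound, inoculated one day later with spores on the lower surface. Held 24–36 h dark at 20°C, 75% rh, then 12 h light/day; percent disease control versus untreated discs scored 12–14 days after application.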

[3] = test system: Glomerella lagenarium (Colletotrichum lagenarium); test: Fungicidal activity against Glomerella lagenarium (Colletotrichum lagenarium) liquid culture / cucumber / preventative (anthracnose); type: cell-based; conditions: Colletotrichum orbiculare; 20 ppm in the applied formulation; liquid culture (PDB), growth inhibition measured photometrically after 3 to 4 days; compared to untreated control; read-out: disease control
Summary of the method: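 Photometric read-out of fungal growth after 2–7 days, expressed as percent antifungal activity versus untreated check. Cryo-stored conidia in PDB; compound at 20 ppm; dark, 24 °C, 96% RH.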

O=C(C1CCCO1)N(Cc1ccc(-c2noc(C(F)(F)F)n2)cc1)CC(F)(F)F (stereo not drawn) [Compound 1.587, N-(2,2,2-Trifluoroethyl)-N-[[4-[5-(Trifluoromethyl)-1,2,4-Oxadiazol-3-yl]Phenyl]Methyl]Tetrahydrofuran-2-Carboxamide]
≥ 80%: pest or weed control at 200 ppm [1] | pest or weed control at 200 ppm [2] | pest or weed control at 200 ppm (Phakopsora Pachyrhizi) | inhibition of growth at 20 ppm [3]

CCC(=O)N(Cc1ccc(-c2noc(C(F)(F)F)n2)cc1)C(C)C [Compound 1.589, N-isopropyl-N-[[4-[5-(trifluoromethyl)-1,2,4-oxadiazol-3-yl]phenyl]methyl]-propanamide]
≥ 80%: pest or weed control at 200 ppm [1] | pest or weed control at 200 ppm [2] | pest or weed control at 200 ppm (Phakopsora Pachyrhizi) | inhibition of growth at 20 ppm [3]

CCC(=O)OCCN(Cc1ccc(-c2noc(C(F)(F)F)n2)cc1)C(=O)CC [Compound 1.590, 2-[propanoyl-[[4-[5-(trifluoromethyl)-1,2,4-oxadiazol-3-yl]phenyl]methyl]-amino]ethyl propanoate]
≥ 80%: pest or weed control at 200 ppm [1] | pest or weed control at 200 ppm [2] | pest or weed control at 200 ppm (Phakopsora Pachyrhizi) | inhibition of growth at 20 ppm [3]

CCC(=O)N(CCO)Cc1ccc(-c2noc(C(F)(F)F)n2)cc1 [Compound 1.591, N-(2-hydroxyethyl)-N-[[4-[5-(trifiuoromethyl)-1,2,4-oxadiazol-3-yl]phenyl]methyl]-propanamide]
≥ 80%: pest or weed control at 200 ppm [1] | pest or weed control at 200 ppm [2] | pest or weed control at 200 ppm (Phakopsora Pachyrhizi) | inhibition of growth at 20 ppm [3]

C=CCN(C(=O)CC)C(C#N)c1ccc(-c2noc(C(F)(F)F)n2)cc1 (stereo not drawn) [Compound 1.592, N-allyl-N-[cyano-[4-[5-(trifluoromethyl)-1,2,4-oxadiazol-3-yl]phenyl]methyl]-propanamide]
≥ 80%: pest or weed control at 200 ppm [1] | pest or weed control at 200 ppm [2] | pest or weed control at 200 ppm (Phakopsora Pachyrhizi) | inhibition of growth at 20 ppm [3]

CCC(=O)N(Cc1c(F)cc(-c2noc(C(F)(F)F)n2)cc1F)OC [Compound 1.594, N-[[2,6-difluoro-4-[5-(trifluoromethyl)-1,2,4-oxadiazol-3-yl]phenyl]methyl]-N-methoxy-propanamide]
≥ 80%: pest or weed control at 200 ppm [1] | pest or weed control at 200 ppm [2] | pest or weed control at 200 ppm (Phakopsora Pachyrhizi) | inhibition of growth at 20 ppm [3]

CN(Cc1ccc(-c2noc(C(F)(F)F)n2)cc1)C(=O)COC(F)F [Compound 1.595, 2-(difluoromethoxy)-N-methyl-N-[[4-[5-(trifluoromethyl)-1,2,4-oxadiazol-3-yl]phenyl]methyl]-acetamide]
≥ 80%: pest or weed control at 200 ppm [1] | pest or weed control at 200 ppm [2] | pest or weed control at 200 ppm (Phakopsora Pachyrhizi) | inhibition of growth at 20 ppm [3]

CON(Cc1c(F)cc(-c2noc(C(F)(F)F)n2)cc1F)C(=O)C1CC1 [Compound 1.596, N-[[2,6-difluoro-4-[5-(trifluoromethyl)-1,2,4-oxadiazol-3-yl]phenyl]methyl]-N-methoxy-cyclopropane-carboxamide]
≥ 80%: pest or weed control at 200 ppm [1] | pest or weed control at 200 ppm [2] | pest or weed control at 200 ppm (Phakopsora Pachyrhizi) | inhibition of growth at 20 ppm [3]

CON(Cc1c(F)cc(-c2noc(C(F)(F)F)n2)cc1F)C(=O)C1CCCO1 (stereo not drawn) [Compound 1.597, N-[[2,6-difluoro-4-[5-(trifluoromethyl)-1,2,4-oxadiazol-3-yl]phenyl]methyl)-N-methoxy-tetrahydrofuran-2-carboxamide]
≥ 80%: pest or weed control at 200 ppm [1] | pest or weed control at 200 ppm [2] | pest or weed control at 200 ppm (Phakopsora Pachyrhizi) | inhibition of growth at 20 ppm [3]

CC(C)N(Cc1ccc(-c2noc(C(F)(F)F)n2)cc1)C(=O)C1CC1 [Compound 1.599, N-isopropyl-N-[[4-[5-(trifluoromethyl)-1,2,4-oxadiazol-3-yl]phenyl]methyl]-cyclopropane-carboxamide]
≥ 80%: pest or weed control at 200 ppm [1] | pest or weed control at 200 ppm [2] | pest or weed control at 200 ppm (Phakopsora Pachyrhizi) | inhibition of growth at 20 ppm [3]

COCC(=O)N(Cc1ccc(-c2noc(C(F)(F)F)n2)cc1)C(C)C [Compound 1.600, N-isopropyl-2-methoxy-N-[[4-[5-(trifluoromethyl)-1,2,4-oxadiazol-3-yl]phenyl]methyl]-acetamide]
≥ 80%: pest or weed control at 200 ppm [1] | pest or weed control at 200 ppm [2] | pest or weed control at 200 ppm (Phakopsora Pachyrhizi) | inhibition of growth at 20 ppm [3]

O=C(ON(Cc1ccc(-c2noc(C(F)(F)F)n2)cc1)C(=O)C1CC1)C1CC1 [Compound 1.608, [cyclopropanecarbonyl-[[4-[5-(trifluoromethyl)-1,2,4-oxadiazol-3-yl]phenyl]methyl]-amino]-cyclopropane-carboxylate]
≥ 80%: pest or weed control at 200 ppm [1] | pest or weed control at 200 ppm [2] | pest or weed control at 200 ppm (Phakopsora Pachyrhizi) | inhibition of growth at 20 ppm [3]

COCC(=O)N(CCO)Cc1ccc(-c2noc(C(F)(F)F)n2)cc1 [Compound 1.610, N-(2-hydroxyethyl)-2-methoxy-N-[[4-[5-(trifluoromethyl)-1,2,4-oxadiazol-3-yl]phenyl]methyl]-acetamide]
≥ 80%: pest or weed control at 200 ppm [1] | pest or weed control at 200 ppm [2] | pest or weed control at 200 ppm (Phakopsora Pachyrhizi) | inhibition of growth at 20 ppm [3]

CN(C(=O)C1CC1)C(C#N)c1ccc(-c2noc(C(F)(F)F)n2)cc1 (stereo not drawn) [Compound 1.612, N-[cyano-[4-[5-(trifluoromethyl)-1,2,4-oxadiazol-3-yl]phenyl]methyl)-N-methyl-cyclopropane-carboxamide]
≥ 80%: pest or weed control at 200 ppm [1] | pest or weed control at 200 ppm [2] | pest or weed control at 200 ppm (Phakopsora Pachyrhizi) | inhibition of growth at 20 ppm [3]

COCC(=O)N(Cc1ccc(-c2noc(C(F)(F)F)n2)cc1)C1COC1 [Compound 1.613, 2-methoxy-N-(oxetan-3-yl)-N-[[4-[5-(trifluoromelhyl)-1,2,4-oxadiazol-3-yl]phenyl]methyl]-acetamide]
≥ 80%: pest or weed control at 200 ppm [1] | pest or weed control at 200 ppm [2] | pest or weed control at 200 ppm (Phakopsora Pachyrhizi) | inhibition of growth at 20 ppm [3]

CCON(Cc1ccc(-c2noc(C(F)(F)F)n2)cc1)C(=O)C(C)C [Compound 1.614, N-ethoxy-2-methyl-N-[[4-[5-(trifluoromethyl)-1,2,4-oxadiazol-3-yl]phenyl]methyl]-propanamide]
≥ 80%: pest or weed control at 200 ppm [1] | pest or weed control at 200 ppm [2] | pest or weed control at 200 ppm (Phakopsora Pachyrhizi) | inhibition of growth at 20 ppm [3]

CCON(Cc1ccc(-c2noc(C(F)(F)F)n2)cc1)C(=O)C1CC1(F)F (stereo not drawn) [Compound 1.615, N-ethoxy-2,2-difluoro-N-[[4-[5-(trifluoromethyl)-1,2,4-oxadiazol-3-yl]phenyl]methyl]-cyclopropane-carboxamide]
≥ 80%: pest or weed control at 200 ppm [1] | pest or weed control at 200 ppm [2] | pest or weed control at 200 ppm (Phakopsora Pachyrhizi) | inhibition of growth at 20 ppm [3]

CCON(Cc1ccc(-c2noc(C(F)(F)F)n2)cc1)C(=O)C1CCOC1 (stereo not drawn) [Compound 1.617, N-ethoxy-N-[[4-[5-(trifluoromethyl)-1,2,4-oxadiazol-3-yl]phenyl]methyl]-tetrahydrofuran-3-carboxamide]
≥ 80%: pest or weed control at 200 ppm [1] | pest or weed control at 200 ppm [2] | pest or weed control at 200 ppm (Phakopsora Pachyrhizi) | inhibition of growth at 20 ppm [3]
